The record followed here is patent US11365193B2, “Oxadiazole compound and fungicide for agricultural and horticultural use” (Nippon Soda Co., Ltd., priority 2017, dated 2022).

The test system of the assay is wheat red rust pathogen (Puccinia recondita). The assay can be described thus: Test Example 1: wheat red rust disease control test (100 ppm). The class given is in vivo. The conditions noted are these: 100 ppm by mass sprayed on wheat young seedlings (Norin 61), inoculated after air-drying; blotch area ratio 12 days after inoculation. Here is the method: 5 parts by, mass of an oxadiazole compound, 93.5 parts by mass of dimethylformamide, and 1.5 parts by mass of polyoxyethylene alkyl aryl ether were mixed and dissolved to obtain an emulsion (I) containing 5% by mass of the active ingradient.
The control value was calculated by the following formula. Control value (%)=100-{blotch area ratio in treated area/blotch area ratio in untreated area}×100
Water was added to the emulsion (I) such that the concentration of the oxadiazole compound became 100 ppm by mass, and then the oxadiazole compound was dissolved to obtain a pharmaceutical solution. Then, the pharmaceutical solution was sprayed on wheat young seedings (variety “Norin 61” at the first to second leaf stage) grown in nursery pots. After air-drying, the wheat young seedings sprayed with the pharmaceutical solution were inoculated with summer spores of wheat red rust pathogen (Puccinia recondita) by spraying the summer spores (in treated area).
As a control, wheat young seedings that were not sprayed with the pharmaceutical solution were inoculated in the same manner as mentioned above (in untreated area).
The wheat young seedings were placed under humid conditions at 20° C. for 1 day. […] After 12 days passed from inoculation, leaves of the wheat seedings were visually observed to measure the blotch area ratio, and the control value was calculated.

Regarding `C[S+]([O-])CCOc1cc(=O)n(Cc2ccc(-c3noc(C(F)(F)F)n3)cc2)cn1` (stereo not shown) [Compound 2-75], the Control value was 2-75%.
